Measured values from the supplement of paper PMC10307832.

Legend:
[1] = compound: Cc1ccc2nc(NCCN)c3ncc(C)n3c2c1; assay: relative viability (nuclei count vs DMSO), 5 days (fraction); higher = more cells survive
Method in brief: (§1)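 Only plates meeting two conditions passed: control CV below 25% and at least one doubling. Lung cancer cell lines, kept overnight at 37 °C in 1536-well plates, were pinned with five library-drug doses (not always all listed) √10 apart on vehicle-anchored plates and grown 5 days without medium change. A one-step fix, permeabilisation and Hoechst stain preceded 4× imaging and MetaXpress nuclear counting. Viability equals treated-well nuclei divided by vehicle-well nuclei, as the median over plates.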

Salubrinal = compound: O=C(/C=C/c1ccccc1)NC(NC(=S)Nc1cccc2cccnc12)C(Cl)(Cl)Cl [Salubrinal]; assay: as above
Method in brief: as §1

Row | Cell Line | relative viability ([1]; 0.04 µM) | relative viability ([1]; 0.1265 µM) | relative viability ([1]; 0.4 µM) | relative viability ([1]; 1.265 µM) | relative viability ([1]; 4 µM) | relative viability (Salubrinal; 0.08 µM) | relative viability (Salubrinal; 0.253 µM) | relative viability (Salubrinal; 0.8 µM) | relative viability (Salubrinal; 2.53 µM) | relative viability (Salubrinal; 8 µM)
1 | NCI-H460 | 0.99 | 0.971 | 0.99 | 0.999 | 0.943 | 1.16 | 0.946 | 1.11 | 0.983 | 0.918
2 | NCI-H520 | 1.13 | 0.912 | 0.933 | 0.915 | 0.845 | 1.05 | 1.01 | 1.07 | 1.03 | 1.14
3 | NCI-H522 | 0.882 | 1.04 | 0.909 | 1.03 | 1.02 | 0.947 | 0.819 | 1.1 | 1.02 | 0.921
4 | NCI-H596 | 0.952 | 0.934 | 1.02 | 0.937 | 0.909 | 1.08 | 0.89 | 1.01 | 0.896 | 0.982
5 | NCI-H647 | 1.13 | 0.993 | 0.934 | 0.865 | 0.741 | 1.18 | 0.98 | 1.11 | 0.964 | 0.884
6 | NCI-H650 | 1.03 | 1.03 | 0.797 | 1.02 | 0.941 | 0.839 | 1.04 | 1.08 | 1.11 | 0.912
7 | NCI-H661 | 1 | 1.03 | 0.996 | 0.985 | 0.969 | 1.09 | 0.928 | 0.992 | 0.937 | 0.998
8 | NCI-H727 | 0.969 | 0.734 | 1.14 | 0.949 | 0.994 | 1.01 | 1.45 | 1.11 | 0.827 | 0.797
9 | NCI-H838 | 1.03 | 0.951 | 0.912 | 0.907 | 0.929 | 1.1 | 0.987 | 1.07 | 1.07 | 0.922
10 | NCI-H1299 | 1.01 | 0.986 | 0.969 | 0.972 | 0.928 | 1.03 | 1.06 | 1 | 0.996 | 0.987
11 | NCI-H1355 | 1.05 | 0.983 | 0.938 | 0.995 | 0.935 | 1.11 | 0.941 | 1.03 | 0.979 | 0.955
12 | NCI-H1395 | 0.959 | 0.941 | 0.844 | 0.859 | 0.633 | 0.882 | 1.01 | 1.08 | 1.01 | 0.769
13 | NCI-H1437 | 1.02 | 0.982 | 0.988 | 0.939 | 0.873 | 0.992 | 0.922 | 1.12 | 1.02 | 0.968
14 | NCI-H1563 | 1.02 | 0.909 | 0.947 | 1.03 | 1.01 | 1.01 | 0.942 | 0.943 | 0.919 | 0.911
15 | NCI-H1623 | 1.01 | 0.838 | 0.961 | 0.887 | 0.937 | 1.08 | 1.18 | 0.949 | 1.1 | 0.997
16 | NCI-H1648 | 0.858 | 0.903 | 0.918 | 0.615 | 0.679 | 0.921 | 0.788 | 0.741 | 0.741 | 0.356
17 | NCI-H1650 | 0.983 | 0.903 | 0.865 | 0.915 | 0.772 | 1.1 | 0.795 | 1.03 | 0.893 | 0.912

Row | Cell Line | relative viability ([1]; 0.04 µM) | relative viability ([1]; 0.1265 µM) | relative viability ([1]; 0.4 µM) | relative viability ([1]; 1.265 µM) | relative viability ([1]; 4 µM) | relative viability (Salubrinal; 0.08 µM) | relative viability (Salubrinal; 0.253 µM) | relative viability (Salubrinal; 0.8 µM) | relative viability (Salubrinal; 2.53 µM) | relative viability (Salubrinal; 8 µM)
18 | NCI-H1651 | 1.02 | 0.95 | 0.991 | 0.971 | 0.917 | 1.13 | 0.905 | 1.13 | 0.964 | 0.988
19 | NCI-H1666 | 1.08 | 0.951 | 0.962 | 0.993 | 0.993 | 0.953 | 0.99 | 0.987 | 0.888 | 1.2
20 | NCI-H1703 | 1.07 | 1.07 | 1.01 | 1.16 | 0.91 | 1.12 | 1.03 | 0.994 | 0.881 | 0.942
21 | NCI-H1734 | 0.979 | 0.99 | 0.886 | 0.9 | 0.979 | 1.02 | 0.882 | 1.14 | 1.01 | 0.909
22 | NCI-H1755 | 1.07 | 0.979 | 0.964 | 0.992 | 0.962 | 1.07 | 1.04 | 1.06 | 0.959 | 0.968
23 | NCI-H1792 | 0.984 | 0.987 |  | 0.963 | 0.826 | 1.05 |  | 1.32 | 1.01 | 0.811
24 | NCI-H1793 | 0.954 | 0.946 | 0.78 | 0.878 | 0.882 | 1.14 | 1.01 | 0.938 | 1.04 | 0.823
25 | NCI-H1915 | 0.958 | 0.998 | 0.705 | 0.93 | 0.954 | 0.973 | 0.856 | 1.12 | 1.01 | 0.973
26 | NCI-H1944 | 0.985 | 0.96 | 0.784 | 1.05 | 0.941 | 1.11 | 1.01 | 0.975 | 0.962 | 1
27 | NCI-H1975 | 1 | 0.951 | 0.934 | 0.85 | 0.869 | 0.93 | 0.82 | 1.01 | 1.04 | 0.935
28 | NCI-H1993 | 0.948 | 0.995 | 0.779 | 0.941 | 0.789 | 0.98 | 0.857 | 1.02 | 1 | 1.1
29 | NCI-H2009 | 1.04 | 0.982 | 1.03 | 1.02 | 0.947 | 1.03 | 1.03 | 1.02 | 0.993 | 0.906
30 | NCI-H2023 | 1.06 | 0.935 | 1.09 | 1.08 | 0.843 | 1.15 | 0.996 | 1.06 | 0.955 | 0.781
31 | NCI-H2085 | 1.03 | 1 | 0.982 | 1.04 | 1.01 | 1.08 | 0.976 | 1.02 | 0.947 | 1.01
32 | NCI-H2087 | 1.13 | 1.15 | 0.861 | 0.997 | 0.953 | 1.16 | 0.931 | 1.07 | 0.989 | 0.968
33 | NCI-H2126 | 1.1 | 0.993 | 0.958 | 0.995 | 0.893 | 1.07 | 0.921 | 1.08 | 1.05 | 0.985
34 | NCI-H2170 | 0.961 | 0.976 | 0.995 | 0.887 | 0.978 | 1.21 | 0.984 | 1.04 | 0.996 | 0.935
